In ChEMBL document CHEMBL2146401, “Synthesis and biological evaluation of novel homochiral carbocyclic nucleosides from 1-amino-2-indanols” (Bioorg Med Chem, 2012) one finds CC50, inhibition and EC50 data, which are given here for 15 compounds.

Series [1] is described as follows: Cytotoxicity against african green monkey Vero cells assessed as cell viability after 2 days by MTS/PMS assay. It is filed as cell-based. The conditions noted are these: chlorocebus sabaeus.
The nature of series [2]: Cytotoxicity against bovine MDBK cells assessed as cell viability after 3 days by MTS/PMS assay. The series is classed as cell-based, Bos taurus. Conditions: cattle.
Series [3] deals with Hepatitis B virus. Kind of series: Antiviral activity against Hepatitis B virus infected in HepG2(2.2.15) cells assessed as reduction in HBsAg level at 100 uM after 9 days by ELISA relative to control. Conditions: HepG2 2.2.15, 216 h. It is filed as functional.
A short description of series [4]: Cytotoxicity against human HepG2(2.2.15) cells assessed as cell viability after 9 days by MTS/PMS assay. It is filed as cell-based.
A short description of series [5]: Antiviral activity against Bovine viral diarrhea virus 1-NADL ATCC VR534 infected in MDBK cells assessed as reduction of viral cytopathic effect at 100 uM after 2 days by MTS assay relative to control. The series is classed as functional. Conditions: Bovine viral diarrhea virus isolates and strains, 48 h. (In general: Protection from cytopathic effect is a common read-out in antiviral testing.)

Series [6] deals with Human alphaherpesvirus 1. The series can be described thus: Antiviral activity against Herpes simplex virus (type 1 / strain F) infected in Vero cells assessed as reduction of number of viral plaques at 100 uM after 2 days relative to control. The series is classed as functional. The conditions noted are these: Human alphaherpesvirus 1, strain F, 48 h.
Series [7] in a line: Cytotoxicity against human HepG2(2.2.15) cells assessed as cell viability after 72 hrs by MTS/PMS assay. It is filed as cell-based.
The subject of series [8] is Human alphaherpesvirus 1. Kind of series: Antiviral activity against Herpes simplex virus (type 1 / strain F) infected in Vero cells assessed as reduction of number of viral plaques at 31.25 uM after 2 days relative to control. The series is classed as functional. Conditions: Human alphaherpesvirus 1, strain F, 48 h.
The nature of series [9]: Cytotoxicity against african green monkey Vero cells assessed as cell viability after 72 hrs by MTS/PMS assay. The series is classed as cell-based. The conditions noted are these: chlorocebus sabaeus.
Series [10] in a line: Cytotoxicity against bovine MDBK cells assessed as cell viability after 72 hrs by MTS/PMS assay. Conditions: cattle. It is filed as cell-based, Bos taurus.
In series [11] the test system is Human alphaherpesvirus 1. Kind of series: Antiviral activity against Herpes simplex virus (type 1 / strain F) infected in Vero cells assessed as reduction of number of viral plaques after 2 days. It is filed as functional, organism-based. Conditions: Human alphaherpesvirus 1, strain F, 48 h.
Series [12] is described as follows: Antiviral activity against Bovine viral diarrhea virus 1-NADL ATCC VR534 infected in MDBK cells assessed as reduction of viral cytopathic effect after 2 days bt MTS assay. The conditions noted are these: Bovine viral diarrhea virus isolates and strains, 48 h. The series is classed as functional, cell-based.
The subject of series [13] is Hepatitis B virus. The series can be described thus: Antiviral activity against Hepatitis B virus infected in HepG2(2.2.15) cells assessed as reduction in HBsAg level at 20 uM after 9 days by ELISA. The series is classed as functional. The conditions noted are these: HepG2 2.2.15, 216 h.

As a reminder, the CC50 is the concentration at which the toxic effect on the cells reaches its halfway point. As usually defined, the inhibition is the share of the control response that was lost under treatment. In the case of `Nc1ncnc2c1nnn2[C@@H]1c2ccccc2C[C@@H]1O`, the CC50 at 48 h in series [1] is 202 µM. Moreover, the 50% cytotoxic concentration (CC50) at 72 h in series [2] is greater than 500 µM. The values for the inhibition at 100 µM (in the series with Hepatitis B virus [3]; in series [5]) were 17.6% and 19.4%, respectively. Besides, the CC50 at 216 h in series [4] was greater than 500 µM.
For `Nc1ncnc2c1nnn2[C@H]1c2ccccc2C[C@@H]1O`, the CC50 at 48 h in series [1] came out at 311 µM. Further, the CC50 at 72 h in series [2] is greater than 500 µM. The results for the inhibition at 100 µM in the series with Hepatitis B virus [3] and in the series on Human alphaherpesvirus 1 [6] were 37.2% and 14.5%, respectively. In addition, the CC50 at 216 h in [4] is greater than 500 µM.
On to `Nc1ncnc2c1nnn2[C@@H]1c2ccccc2C[C@H]1O`, for which the 50% cytotoxic concentration (CC50) at 48 h in series [1] is greater than 500 µM. Further, the CC50 at 72 h in series [2] is greater than 500 µM. Besides, the inhibition at 100 µM in the series on Hepatitis B virus [3] was determined as 42.1%; in the series on Human alphaherpesvirus 1 [6], 7.8%. Further, the 50% cytotoxic concentration (CC50) at 216 h in [4] was greater than 500 µM.
With `O[C@@H]1Cc2ccccc2[C@@H]1n1cnc2c(Cl)ncnc21`, the CC50 at 72 h amounted to 308 µM in series [7], 254 µM in series [9] and 14.3 µM in series [10]. For the same compound, the inhibition at 31.25 µM with Human alphaherpesvirus 1 [8] was determined as 20.9%.
With `O[C@H]1Cc2ccccc2[C@H]1n1cnc2c(Cl)ncnc21`, in series [1], the CC50 at 48 h is greater than 500 µM. In addition, the 50% cytotoxic concentration (CC50) at 72 h in series [2] was greater than 500 µM. In addition, the inhibition at 100 µM with Hepatitis B virus [3] was found to be 30.8%; with Human alphaherpesvirus 1 [6], 23.2%; in [5] it was 19.7%. Besides, the 50% cytotoxic concentration (CC50) at 216 h in series [4] was greater than 500 µM.
As a reminder, the EC50 is the concentration that produces a half-maximal response. For the compound `Nc1nc2c(ncn2COCCO)c(=O)[nH]1` [ACYCLOVIR], the EC50 in the series on Human alphaherpesvirus 1 [11] is 0.5 µM.
Turning to `Oc1ncnc2c1nnn2[C@@H]1c2ccccc2C[C@H]1O`, the CC50 at 48 h in [1] was greater than 500 µM. The CC50 at 72 h in series [2] was greater than 500 µM. Moreover, the inhibition at 100 µM in the series on Hepatitis B virus [3] is 16.6%. The CC50 at 216 h in [4] is greater than 500 µM.
`Oc1ncnc2c1nnn2[C@H]1c2ccccc2C[C@@H]1O`: the CC50 at 48 h in series [1] is greater than 500 µM. Moreover, the CC50 at 72 h in series [2] is greater than 500 µM. Besides, the inhibition at 100 µM in the series on Hepatitis B virus [3] turned out to be 25.2%. For the same compound, the CC50 at 216 h in series [4] is greater than 500 µM.
Consider `NC(=O)c1ncn([C@@H]2O[C@H](CO)[C@@H](O)[C@H]2O)n1` [RIBAVIRIN], for which, in series [12], the concentration giving a half-maximal response (EC50) was 4.6 µM.
Turning to `Nc1ccn([C@@H]2CS[C@H](CO)O2)c(=O)n1` [LAMIVUDINE], the inhibition at 20 µM with Hepatitis B virus [13] was determined as 45%.
`Oc1ncnc2c1nnn2[C@H]1c2ccccc2C[C@H]1O`: the CC50 at 48 h in [1] is greater than 500 µM. The half-maximal cytotoxic concentration (CC50) at 72 h in series [2] is greater than 500 µM. The figures for the inhibition at 100 µM in the series with Hepatitis B virus [3] and in the series with Human alphaherpesvirus 1 [6] were 27.7% and 15.8%, respectively. Besides, the CC50 at 216 h in series [4] is greater than 500 µM.
On to `Nc1ncnc2c1nnn2[C@H]1c2ccccc2C[C@H]1O`, for which, in series [1], the CC50 at 48 h was greater than 500 µM. The 50% cytotoxic concentration (CC50) at 72 h in [2] was greater than 500 µM. Also, the figures for the inhibition at 100 µM (in the series with Hepatitis B virus [3]; in the series with Human alphaherpesvirus 1 [6]; in series [5]) were 41.4%, 20.9% and 42.1%, respectively. In addition, the cytotoxic concentration (CC50) at 216 h in series [4] is greater than 500 µM.
`Oc1ncnc2c1nnn2[C@@H]1c2ccccc2C[C@@H]1O`: in series [1], the CC50 at 48 h is greater than 500 µM. In series [2], the CC50 at 72 h was greater than 500 µM. Besides, the inhibition at 100 µM turned out to be 35.3% with Hepatitis B virus [3] and 12.8% with Human alphaherpesvirus 1 [6]. Further, in [4], the CC50 at 216 h is greater than 500 µM.
Regarding `O[C@H]1Cc2ccccc2[C@@H]1n1cnc2c(Cl)ncnc21`, the 50% cytotoxic concentration (CC50) at 48 h in [1] was greater than 500 µM. In series [2], the CC50 at 72 h was greater than 500 µM. Also, the figures for the inhibition at 100 µM in the series with Hepatitis B virus [3] and with Human alphaherpesvirus 1 [6] were 14.2% and 16.2%, respectively. Further, the CC50 at 216 h in series [4] is greater than 500 µM.
Consider `O[C@@H]1Cc2ccccc2[C@H]1n1cnc2c(Cl)ncnc21`, for which the cytotoxic concentration (CC50) at 48 h in series [1] is greater than 500 µM. Besides, the CC50 at 72 h in series [2] was greater than 500 µM. In addition, the inhibition at 100 µM in the series on Hepatitis B virus [3] was 22.6%; with Human alphaherpesvirus 1 [6], 7.2%. Further, the CC50 at 216 h in series [4] is greater than 500 µM.
